How the values were obtained:
[1] = Metabolic stability in human liver microsomes assessed as parent compound remaining incubated for 10 mins; assay type: ADME, Microsome; details: read-out: Stabilty
[2] = Metabolic stability in mouse liver microsomes assessed as parent compound remaining incubated for 10 mins; assay type: ADME, Microsome; details: read-out: Stabilty
[3] = target: T1, Nuclear receptor ROR-gamma (Homo sapiens, UniProt P51449); experiment: Inverse agonist activity at RORgammat (unknown origin) expressed in Jurkat cells by reporter assay; assay type: cell-based
T1 sequence (P51449 whole entry): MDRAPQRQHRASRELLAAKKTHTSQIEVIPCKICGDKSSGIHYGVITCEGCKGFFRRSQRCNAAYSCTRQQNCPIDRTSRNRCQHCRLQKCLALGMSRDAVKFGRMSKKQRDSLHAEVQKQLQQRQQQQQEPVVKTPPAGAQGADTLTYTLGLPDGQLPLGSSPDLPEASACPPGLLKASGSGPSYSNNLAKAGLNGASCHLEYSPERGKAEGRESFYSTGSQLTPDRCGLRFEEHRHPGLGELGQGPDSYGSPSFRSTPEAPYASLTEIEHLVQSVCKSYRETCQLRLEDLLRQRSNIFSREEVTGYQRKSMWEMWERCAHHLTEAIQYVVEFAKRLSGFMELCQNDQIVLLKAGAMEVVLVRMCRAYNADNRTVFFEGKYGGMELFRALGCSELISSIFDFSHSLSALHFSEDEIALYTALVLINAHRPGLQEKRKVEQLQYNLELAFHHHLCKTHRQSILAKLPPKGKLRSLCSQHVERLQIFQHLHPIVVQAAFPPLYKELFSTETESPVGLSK

[4] = target: T2, Nuclear receptor subfamily 1 group I member 2 (Homo sapiens, UniProt O75469); experiment: Activation of PXR (unknown origin)
T2 sequence (O75469 whole entry): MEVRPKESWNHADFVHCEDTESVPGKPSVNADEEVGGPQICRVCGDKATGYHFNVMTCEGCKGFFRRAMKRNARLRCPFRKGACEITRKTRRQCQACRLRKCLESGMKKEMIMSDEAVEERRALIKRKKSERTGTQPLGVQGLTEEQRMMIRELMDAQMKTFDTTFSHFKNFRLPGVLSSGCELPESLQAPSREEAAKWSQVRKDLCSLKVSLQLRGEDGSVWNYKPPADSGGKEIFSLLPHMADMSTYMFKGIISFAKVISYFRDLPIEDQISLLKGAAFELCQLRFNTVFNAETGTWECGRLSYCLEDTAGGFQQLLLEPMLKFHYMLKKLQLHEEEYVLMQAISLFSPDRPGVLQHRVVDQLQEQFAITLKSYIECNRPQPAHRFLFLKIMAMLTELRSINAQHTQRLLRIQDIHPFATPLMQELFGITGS

PXR = target: T3, PXR (Homo sapiens, UniProt O75469); experiment: (§1) Activation of PXR (unknown origin) relative to rifampicin; details: read-out: %max
T3 sequence (O75469 whole entry): T2 sequence (O75469 whole entry)

[5] = target: T2, Nuclear receptor subfamily 1 group I member 2; experiment: as §1
[6] = target: T4, Nuclear receptor ROR-alpha (Homo sapiens, UniProt P35398); experiment: Inverse agonist activity at ROR-alpha (unknown origin) expressed in Jurkat cells by gal4 reporter assay; assay type: cell-based
T4 sequence (P35398 whole entry): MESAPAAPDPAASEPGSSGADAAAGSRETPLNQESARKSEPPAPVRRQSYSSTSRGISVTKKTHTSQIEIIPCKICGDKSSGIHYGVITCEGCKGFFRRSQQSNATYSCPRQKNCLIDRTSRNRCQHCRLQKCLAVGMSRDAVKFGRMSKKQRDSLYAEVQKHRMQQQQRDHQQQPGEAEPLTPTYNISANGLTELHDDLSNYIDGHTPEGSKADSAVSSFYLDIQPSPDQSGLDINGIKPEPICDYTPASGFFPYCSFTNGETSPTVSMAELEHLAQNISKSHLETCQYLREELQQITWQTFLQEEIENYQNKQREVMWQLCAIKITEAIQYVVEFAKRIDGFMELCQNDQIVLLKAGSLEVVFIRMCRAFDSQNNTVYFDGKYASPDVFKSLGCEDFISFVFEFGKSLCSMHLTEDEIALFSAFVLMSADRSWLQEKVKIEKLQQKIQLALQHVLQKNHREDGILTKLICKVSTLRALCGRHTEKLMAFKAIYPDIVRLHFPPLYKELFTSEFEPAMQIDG

[7] = target: T5, Nuclear receptor ROR-beta (Homo sapiens, UniProt Q92753); experiment: Inverse agonist activity at ROR-beta (unknown origin) expressed in Jurkat cells by gal4 reporter assay; assay type: cell-based
T5 sequence (Q92753 whole entry): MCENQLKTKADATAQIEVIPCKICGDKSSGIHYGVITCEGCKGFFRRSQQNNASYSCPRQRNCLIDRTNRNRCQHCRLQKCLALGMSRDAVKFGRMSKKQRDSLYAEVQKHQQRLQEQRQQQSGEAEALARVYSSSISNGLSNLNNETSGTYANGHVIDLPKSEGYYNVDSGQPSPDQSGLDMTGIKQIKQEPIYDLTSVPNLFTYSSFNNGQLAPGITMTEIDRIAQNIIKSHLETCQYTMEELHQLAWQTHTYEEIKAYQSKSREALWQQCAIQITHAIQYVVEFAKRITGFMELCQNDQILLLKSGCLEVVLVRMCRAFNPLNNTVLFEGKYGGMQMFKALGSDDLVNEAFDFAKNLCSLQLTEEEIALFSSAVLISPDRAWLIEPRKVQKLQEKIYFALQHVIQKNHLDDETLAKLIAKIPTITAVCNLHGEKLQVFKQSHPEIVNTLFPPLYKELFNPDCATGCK

Row | remaining at 10 min [1] [%] | remaining at 10 min [2] [%] | EC50 [3] [nM] | EC50 [4] [nM] | Emax (PXR) [%] | %max [5] [%] | EC50 [6] [nM] | EC50 [7] [nM] | Compound
1 | 54 | 65 |  |  |  |  |  |  | C[C@]1(c2ccc(F)cc2)CN(C(=O)NCc2ccc3c(c2)OCO3)C[C@H]1c1ccc(C(O)(C(F)(F)F)C(F)(F)F)cc1
2 |  |  | 7910 | 1250 | 39 |  |  |  | C[C@]1(c2ccccc2)CNC[C@H]1c1ccc(C(O)(C(F)(F)F)C(F)(F)F)cc1 (racemic)
3 | 32 | 51 |  | 5 | 100 |  |  |  | CCS(=O)(=O)c1ccc(CNC(=O)N2C[C@@H](c3ccc(C(O)(C(F)(F)F)C(F)(F)F)cc3)[C@@](C)(c3ccc(F)cc3)C2)cc1
4 |  |  |  | 257 | 110 |  |  |  | C[C@]1(c2ccccc2)CN(S(C)(=O)=O)C[C@H]1c1ccc(C(O)(C(F)(F)F)C(F)(F)F)cc1 (racemic)
5 | 97 | 100 |  | 1060 | 72 |  |  |  | C[C@]1(c2ccc(F)cc2)CN(C(=O)C2CCN(C(N)=O)CC2)C[C@H]1c1ccc(C(O)(C(F)(F)F)C(F)(F)F)cc1
6 |  |  |  | 60 | 84 |  |  |  | C[C@@]1(c2ccc(C(O)(C(F)(F)F)C(F)(F)F)cc2)CN(C(=O)NCc2ccccc2)C[C@@H]1c1ccccc1 (racemic)
7 | 76 | 51 | 74 |  |  |  |  |  | C[C@]1(c2ccc(F)cc2)CN(C(=O)NCc2ccc(C#N)cc2)C[C@H]1c1ccc(C(O)(C(F)(F)F)C(F)(F)F)cc1
8 | 74 | 79 |  |  |  |  |  |  | CC(=O)N1CCC(C(=O)N2C[C@H](c3ccc(C(O)(C(F)(F)F)C(F)(F)F)cc3)[C@](C)(c3ccccc3)C2)CC1
9 | 73 | 67 |  | 559 |  | 98 |  |  | C[C@]1(c2ccc(F)cc2)CN(C(=O)NCc2ccccc2)C[C@H]1c1ccc(C(O)(C(F)(F)F)C(F)(F)F)cc1
10 |  |  |  | 1780 | 73 |  |  |  | CCNC(=O)N1C[C@@H](c2ccc(C(O)(C(F)(F)F)C(F)(F)F)cc2)[C@@](C)(c2ccccc2)C1 (racemic)
11 | 90 | 80 |  | 151 | 78 |  |  |  | C[C@]1(c2ccc(F)cc2)CN(C(=O)C2CCN(S(C)(=O)=O)CC2)C[C@H]1c1ccc(C(O)(C(F)(F)F)C(F)(F)F)cc1
12 | 68 | 67 |  | 189 | 84 |  |  |  | COc1ccc(CNC(=O)N2C[C@@H](c3ccc(C(O)(C(F)(F)F)C(F)(F)F)cc3)[C@@](C)(c3ccc(F)cc3)C2)cc1
13 |  |  |  | 361 | 110 |  |  |  | CC(=O)N1C[C@@H](c2ccc(C(O)(C(F)(F)F)C(F)(F)F)cc2)[C@@](C)(c2ccccc2)C1 (racemic)
14 |  |  |  | 474 | 79 |  |  |  | C[C@]1(c2ccc(F)cc2)CN(C(=O)NCc2ccccc2)C[C@H]1c1ccc(C(O)(C(F)(F)F)C(F)(F)F)cc1 (racemic)
15 | 89 | 75 |  |  |  |  |  |  | CC(=O)N1CCC(C(=O)N2C[C@@H](c3ccc(C(O)(C(F)(F)F)C(F)(F)F)cc3)[C@@](C)(c3ccccc3)C2)CC1
16 | 58 | 17 |  | 472 | 80 |  |  |  | C[C@@]1(c2ccc(F)cc2)CN(C(=O)NCc2ccccc2)C[C@@H]1c1ccc(C(O)(C(F)(F)F)C(F)(F)F)cc1
17 | 54 | 49 |  | 1550 | 52 |  |  |  | COCC(=O)N1CCC(C(=O)N2C[C@@H](c3ccc(C(O)(C(F)(F)F)C(F)(F)F)cc3)[C@@](C)(c3ccc(F)cc3)C2)CC1
18 |  |  |  | 740 | 93 |  |  |  | C[C@]1(c2ccccc2)CN(C(=O)c2ccccc2)C[C@H]1c1ccc(C(O)(C(F)(F)F)C(F)(F)F)cc1 (racemic)
19 |  |  |  | > 50000 | 15 |  |  |  | CC(=O)N1CCC(C(=O)N2C[C@@H](c3ccc(C(F)(C(F)(F)F)C(F)(F)F)cc3)[C@@](C)(c3ccc(F)cc3)C2)CC1
20 | 80 | 79 |  | 495 | 46 |  | > 40000 | > 40000 | C[C@]1(c2ccc(F)cc2)CN(C(=O)C2CCN(C(=O)CC#N)CC2)C[C@H]1c1ccc(C(O)(C(F)(F)F)C(F)(F)F)cc1
21 | 86 | 81 |  | 1080 | 61 |  |  |  | CC(=O)N1CCC(C(=O)N2C[C@@H](c3ccc(C(O)(C(F)(F)F)C(F)(F)F)cc3)[C@@](C)(c3ccc(F)cc3)C2)CC1
22 | 86 | 82 |  |  |  |  |  |  | C[C@]1(c2ccc(F)cc2)CN(C(=O)C2CCN(C(=O)CO)CC2)C[C@H]1c1ccc(C(O)(C(F)(F)F)C(F)(F)F)cc1
23 | 91 | 87 |  | 995 | 73 |  |  |  | C[C@]1(c2ccc(F)cc2)CN(C(=O)C2CCN(C(=O)C(N)=O)CC2)C[C@H]1c1ccc(C(O)(C(F)(F)F)C(F)(F)F)cc1
24 | 11 | 1 |  |  |  |  |  |  | C[C@]1(c2ccc(F)cc2)CN(C(=O)NCc2ccncc2)C[C@H]1c1ccc(C(O)(C(F)(F)F)C(F)(F)F)cc1
25 |  |  |  | 276 | 96 |  |  |  | C[C@]1(c2ccccc2)CN(CC(N)=O)C[C@H]1c1ccc(C(O)(C(F)(F)F)C(F)(F)F)cc1 (racemic)
